Measurements as given in patent US20100247503A1, “METHOD FOR OBTAINING A SOLID COMPOSITION WITH RHODOTORULA MINUTA, WHICH IS EFFECTIVE FOR THE BIOLOGICAL CONTROL OF ANTHRACNOSE, AND RESULTING COMPOSITION” (priority 2006, published 2010).

Key:
Type in all cases: in vivo
[1] = test system: Colletotrichum gloeosporioides; assay: Field tests with liquid compositions, pre-harvest application, severity of anthracnose on mango fruit; conditions: mango cv. Kent, five monthly pre-harvest sprays, fruit stored 15 days at 20° C., 85% RH, R. minuta 10^8, B. subtilis 10^6, mix 10^6+10^4 UFC/mL, Benomyl 0.5 g/L
Description: (§1) Application of treatments in the field. To verify field effectiveness we used an eight-year old commercial mango orchard cv. Kent, located in El Rosario, Sinaloa, Mexico. We selected the trees homogeneously to distribute them for each treatment (three trees per treatment). In each treatment there was a monthly application (five in total), using a backpack pump sprinkler operated at 400 pounds of pressure. We started during flowering (February) until the harvest (June or July), spraying suspensions of fresh or dried cells (previously hydrated), produced in semi-industrial fermenters. We sprayed 7 L of cell suspension on each selected mango tree, until all the foliage was wet. As a control treatment, we sprayed 7 L of irrigation water.
(§2) Quantifying the severity of anthracnose. For each treatment, 100 mango fruits were harvested at physiological maturity (Báez et al., 1993), and were stored under simulated marketing conditions at 20° C. and 85% relative humidity. We evaluated the severity of the disease after a minimum of 15 days of storage, using the presence of symptoms as indicator of the disease (anthracnose) in the fruit. […]
(§3) Statistical analysis. The study of the severity of the disease in mango fruits was analyzed using a completely randomized block design. […] The difference between treatments was determined by the Tukey test (p=0.05). […]

[2] = test system: Colletotrichum gloeosporioides; assay: Field tests with solid dry compositions, pre-harvest application, severity of anthracnose on mango fruit; conditions: mango cv. Kent, mix 10^6+10^4 UFC/mL, Benomyl 0.5 g/L
Description: as §1, §2, §3

[3] = test system: mango fruit (Mangifera indica) cv. Kent; assay: Assessing the quality of the fruit (weight loss, pH, titratable acidity, total soluble solids) during storage; conditions: 85% RH
Method: Assessing the quality of the fruit. Weight loss was assessed every third day by difference in weight with respect to the initial weight of the fruit, expressed as a percentage (Diaz-Pérez, 1998). The pH, titratable acidity (TA) and total soluble solids (TSS) were quantified according to the methodology proposed by the AOAC (1998) at 0, 6 and 12 days of storage. To determine the pH and acidity we used a Mettler automatic titrator (model DL-21) and the results were expressed in units of pH and percentage of citric acid, respectively. Total soluble solids were determined with a Leica Abbe Mark II type refractometer, temperature-compensated and previously calibrated with pure water. The results were expressed in Brix degrees (°Brix). For quality parameters, a fruit was selected as an experimental unit and five replications were used.
Statistical analysis. The study of the severity of the disease in mango fruits was analyzed using a completely randomized block design. Data from the evaluations of each treatment were subjected to unilateral variance analysis by Friedman ranges (p<0.05) using the SAS statistical system (SAS, 1998). The difference between treatments was determined by the Tukey test (p=0.05). For differences in the analysis of variance (ANOVA) of quality variables, the mediums were separated by Tukey multiple comparison test with a probability of error of 5%, using the Minitab statistical program version 13.1.
The same compositions presented in table 2 were used to study the effect of the application of biological control agents, subject of this invention, on the quality of mango fruit cv. Kent.

CCCCNC(=O)n1c(NC(=O)OC)nc2ccccc21 [Benomyl]
% of severity after 15 days of storage [1]: 41.7 b %
% of severity after 15 days of storage ([1]; listed as chemical treatment): 41.7%
% severity [2]: 25.0 b %
% severity ([2]; listed as chemical treatment): 36.2%
Weight loss (%) ([3]; day 3 of storage at 20° C.): 0.9 a %
Weight loss (%) ([3]; day 6 of storage at 20° C.): 1.6 a %
Weight loss (%) ([3]; day 9 of storage at 20° C.): 2.4 ab %
Weight loss (%) ([3]; day 12 of storage at 20° C.): 3.4 ab %
Weight loss (%) ([3]; day 15 of storage at 20° C.): 4.3 a %
Weight loss (%) ([3]; day 15 of storage at 20° C., listed as chemical treatment): 4.3%
